US5597919A, “Pyrimidinyl or Pyridinyl alkenyl amine compounds” (priority 1995, dated 1997)

Key:
[1] = test system: dopamine release from synaptosomes of the striatal area of rat brain; assay type: biochemical, rat (Sprague-Dawley); details: for Dopamine Release Emax (% nicotine): rat, striatal synaptosomes
[2] = test system: ganglionic-type neuronal nicotinic receptors (rat pheochromocytoma clonal line PC 12); assay: Interaction with ganglia: 86Rb+ efflux in PC12 cells; assay type: cell-based

| Structure (SMILES) | EC50 [1] | Dopamine Release Emax (% nicotine) [1] | Ganglion Effect (% nicotine) [2] |
| --- | --- | --- | --- |
| NCC/C=C/c1cncnc1.O=C(O)/C=C/C(=O)O [Sample No. 1, (E)-4-(5-pyrimidinyl)-3-butene-1-amine monofumarate] | 4.36 µM | 113 % nicotine |  |
| CNCC/C=C/c1cncnc1 [Sample No. 2, (E)-N-methyl-4-(5-pyrimidinyl)-3-butene-1-amine] | 5.8 µM | 77 % nicotine | 1 % nicotine |
| COc1cncc(/C=C/CCN)c1 [Sample No. 3, (E)-4-[3-(5-methoxypyridin)yl]-3-butene-1-amine monofumarate] | 4 µM | 95 % nicotine | 0 % nicotine |
| CNCCC#Cc1cccnc1 [Sample No. 4, N-Methyl-4-(3-pyridinyl)-3-butyne-1-amine] | 8.35 µM | 87 % nicotine | 59 % nicotine |
| CNCC/C=C\c1cccnc1 [Sample No. 5, (Z)-metanicotine] | 11.3 µM | 88 % nicotine |  |
| CNCC/C=C/c1ccc(C)nc1 [Sample No. 6, (E)-N-methyl-4-[3-(6-methylpyrindin)yl]-3-butene-1-amine] | 0.219 µM | 60 % nicotine | 4 % nicotine |
| CNCCCCc1cccnc1 [Sample No. 7, N-methyl-(3-1-pyridinyl)-butane-1-amine] |  | 72 % nicotine | 31 % nicotine |
| CNCC/C=C/c1cccnc1 [Sample No. 8, (E)-metanicotine] | 1.47 µM | 80 % nicotine |  |
| CN1CCC[C@H]1c1cccnc1 [Sample No. C-1, (S)-(-)-nicotine, reference compound] | 0.115 µM |  |  |
